Test results published in patent US8574925B2, “Fluorescence analysis method using fluorescent-activating antibodies” (Hamamatsu Photonics K.K., priority 2002, dated 2013).
One block for each molecule: values may come before it.

Assays:
Format in all cases: binding, guinea pig
anti-MG-Ins IgG = test: Fluorescence spectrum of auramine O bound to the anti-MG-Ins IgG; conditions: IgG 1 μM, AO 1 μM, PBS pH 7.2, 25° C., excitation 400 nm; FIG. 14
Protocol: The fluorescence spectrum of AO when AO is bound to the anti-MG-Ins IgG by an antigen-antibody reaction was measured as follows. The anti-MG-Ins IgG and AO were mixed so that the respective concentrations will be 1 μM and 1 μM (using phosphate buffered saline (pH 7.2, PBS) as the solvent). An antigen-antibody reaction was made to proceed by stirring for five minutes at 25° C. Then using the fluorescence spectrophotometer, the fluorescence spectrum emitted from the above-described mixed solution was measured under the conditions of an excitation wavelength of 400 nm, fluorescence wavelength of 450 to 650 nm, and bandpass width being set to 5 nm at both the excitation and fluorescence sides.

anti-MG-Ins Fab [1] = test: Fluorescence spectrum of malachite green bound to the anti-MG-Ins Fab; conditions: Fab 0.955 μM, MG 0.907 μM, PBS pH 7.2, 25° C., excitation 620 nm; FIG. 11
Protocol: The fluorescence spectrum of MG when MG is bound to the anti-MG-Ins Fab by an antigen-antibody reaction was measured as follows. The anti-MG-Ins Fab and MG were mixed so that the respective concentrations will be 0.955 μM and 0.907 μM (using phosphate buffered saline (pH 7.2, PBS) as the solvent). Then, an antigen-antibody reaction was made to proceed by stirring for five minutes at 25° C. Then using the fluorescence spectrophotometer, the fluorescence spectrum emitted from the above-described mixed solution was measured under the conditions of an excitation wavelength of 620 nm, fluorescence wavelength of 630 to 750 nm, and bandpass width being set to 5 nm at both the excitation and fluorescence sides.
Fluorescence spectra were also measured in the same manner as the above for various MG concentrations in the range of 0 to 0.9 μM with the anti-MG-Ins Fab concentration being set at 1 μM.

anti-MG-Ins Fab [2] = test: Verification test concerning the reversibility of the antigen-antibody reactions (AO fluorescence)
Protocol: The following experiment was carried out in order to confirm that, when the free insulin concentration in the same sample is varied by repeating the addition of insulin and the addition of anti-porcine insulin IgG (referred to hereinafter as “anti-insulin IgG”) in a solution containing the anti-MG-Ins Fab and auramine O, the measurement values of this invention vary following the variation of the free insulin concentration, that is, the antigen-antibody reactions concerning this invention are reversible and enable analysis in real time. The measurement of fluorescence intensity was carried out under the same measurement conditions as described above in [2-2-1].
First, 2 ml of a PBS solution, containing 2 μM of the anti-MG-Ins Fab and 0.4 μM of auramine O, were prepared. The AO fluorescence intensity was measured upon placing the solution in a cell. The florescence intensity at this time was set to a relative value of 1.
Insulin was then added to the solution in the cell so that the insulin concentration will be 1.26 μM.
A fixed amount (0.135 μM) of the anti-insulin IgG was then added to this solution. […] The AO fluorescence intensity returned to the original value since the anti-insulin IgG and insulin became bonded and free insulin no longer existed in the solution.
When insulin was then added again to this solution so that the insulin concentration will be 2.39 μM.

anti-MG-Ins Fab [3] = test: Calibration curve: insulin concentration vs MG fluorescence intensity with anti-MG-Ins Fab and malachite green; conditions: 1 μM anti-MG-Ins Fab, 0.4 μM MG, excitation 620 nm, fluorescence 650 nm; FIG. 13
Protocol: A calibration curve, indicating the relationship between the insulin concentration and fluorescence intensity for a fixed amount (1 μM) of the anti-MG-Ins Fab and a fixed amount (0.4 μM) of MG, was prepared as follows. Since the insulin used forms aggregate of a few molecules because of containing zinc, the insulin was dissolved in advance in PB containing SDS at a final concentration of 0.1% to dissociate the aggregate. The insulin solution thus obtained was thereafter run through a gel permeation column (Fast Desaliting Column HR 10/10, made by Pharnacia), equilibrated using PBS. The insulin solution from which SDS was thus removed was used in the following quantification. • (1) The fluorescence spectrophotometer was set to an excitation wavelength of 620 nm and a fluorescence wavelength of 650 nm and the temperature of the cell holder was maintained at a fixed temperature (25° C.). • (2) 2 ml (A=2 ml) of an antibody-dye solution, containing 1 μM (Y=1 μM) of the anti-MG-Ins Fab and 0.4 μM (Z=0.4 μM) of MG, were prepared (with phosphate buffered saline (pH 7.2, PBS) as the solvent) (S101). • (3) The antibody-dye solution thus obtained was placed in a standard fluorescence measurement cell. This cell was set in the fluorescence spectrophotometer. The solution in the cell was stirred for 30 seconds with a micro stirring bar. […]

anti-MG-Ins Fab [4] = test: Calibration curve: insulin concentration vs AO fluorescence intensity with anti-MG-Ins Fab and auramine O; conditions: 2 μM anti-MG-Ins Fab, 0.4 μM AO, excitation 400 nm, fluorescence 520 nm; FIG. 15
Protocol: A calibration curve was prepared for insulin concentrations in the range of 0 to 7.7 μM in the same manner as described above in [1-10-1] other than the changes of setting the anti-MG-Ins Fab concentration to 2 μM, using 0.4 μM of auramine O in place of 0.4 μM of malachite green, setting the excitation wavelength to 400 nm, and setting the fluorescence wavelength to 520 nm.

fluorescence upon binding with the anti-MG-Ins IgG (anti-MG-Ins IgG): became fluorescent
Molecule: CN(C)c1ccc(C(=N)c2ccc(N(C)C)cc2)cc1 [auramine O]

Molecule: CN(C)c1ccc(C(=C2C=CC(=[N+](C)C)C=C2)c2ccccc2)cc1 [malachite green]
fluorescence upon binding with the anti-MG-Ins Fab (anti-MG-Ins Fab [1]): became fluorescent

Molecule: insulin
relative value of the AO fluorescence intensity (anti-MG-Ins Fab [2]; insulin added again to 2.39 μM): decreased again | relative value of the AO fluorescence intensity (anti-MG-Ins Fab [2]; insulin added again to 3.37 μM): decreased | relative value of the AO fluorescence intensity (anti-MG-Ins Fab [2]; insulin added to 1.26 μM, 2 μM anti-MG-Ins Fab, 0.4 μM AO, start value 1): approximately 0.97 | change of malachite green fluorescence intensity with increase of insulin concentration (anti-MG-Ins Fab [3]): enhancement of fluorescence occurs | change of auramine O fluorescence intensity with increase of insulin concentration (anti-MG-Ins Fab [4]): inhibition of fluorescence occurs
